Values quoted from earlier work as cited in patent US20250339514A1, “SINGLE-AND MULTI-EPITOPE PEPTIDE AND MRNA VACCINES TO GENERATE TOLEROGENIC EFFECTS FOR ALLERGIC AND AUTOIMMUNE DISEASE BY TARGETING LIVER SINUSOIDAL ENDOTHELIAL CELLS” (The Regents of the University of California, priority 2022, published 2025).

How the values were obtained:
MRL/lpr mice = conditions: repeated administration; cited from earlier work
lupus patients = conditions: Phase 1 and Phase 2 clinical trials; cited from earlier work

For RIHMVYSKRpSGKPRGYAFIEY [P140], the “T-cell epitope spreading to other U1-70K regions” value (MRL/lpr mice) is given as “transiently abolishing T-cell epitope spreading” and the clinical efficacy (lupus patients) is given as “effective in treating lupus patients”.
